Calls of active or inactive are those of the source. The calls are words filed in the database; no cut-off is given here.

For 1 molecule, Activity, inhibition in vivo and IC50 results are on record in ChEMBL document CHEMBL3734724, “Anticancer efficacy of unique pyridine-based tetraindoles” (Eur J Med Chem, 2015).

Assay [1] concerns MDA-MB-231. The experiment in a line: Antimetastatic activity against luciferase-expressing human MDA-MB-231 cells xenografted in nude mouse assessed as suppression of lung metastasis by measuring reduction of lung weight at 25 mg/kg, ip administered every other day measured on day 54 relative to vehicle-treated control. It counts as functional. Also on record: scale not given: the % may be the effect or the level left.

The test system of assay [2] is MDA-MB-231. The experiment in a line: Upregulation of phosphorylated chk2 protein expression in human MDA-MB-231 cells after 48 hrs by Western blot analysis. It counts as functional, cell-based. (Immunoblotting shows a protein as a band on a membrane.)
Assay [3] deals with MDA-MB-231. Nature of the assay: Cell cycle arrest in human MDA-MB-231 cells assessed as accumulation at G2/M phase at 1.6 uM after 48 hrs by propidium iodide staining-based flow cytometric analysis (reference value: 16 +/- 3%). It counts as functional. (In general: In flow cytometry, cells or beads pass a laser one at a time.)
Assay [4] relates to MDA-MB-231. The experiment in a line: Upregulation of cyclin B1 protein expression in human MDA-MB-231 cells at 0.4 to 3.2 uM after 48 hrs by Western blot analysis relative to control. It counts as functional, cell-based.
Assay [5] deals with MDA-MB-231. The experiment in a line: Antitumor activity against luciferase-expressing human MDA-MB-231 cells xenografted in nude mouse assessed as tumor growth inhibition at 10 mg/kg, ip administered every other day measured on day 54 relative to vehicle-treated control. It counts as functional. The following applies: MDA-MB-231, ip, 1296 h, read-out: TGI.
For assay [6], the system named is MDA-MB-231. The experiment in a line: Cell cycle arrest in human MDA-MB-231 cells assessed as accumulation at G2/M phase at 1.6 uM after 24 hrs by propidium iodide staining-based flow cytometric analysis (reference value: 12 +/- 2%). It counts as functional.
The next assay deals with MCF7. Nature of the assay: Cytotoxicity against human MCF7 cells assessed as growth inhibition after 48 hrs by MTT assay. The class given is functional, cell-based. Conditions: MCF7, 48 h.
Assay [7] concerns MDA-MB-231. Nature of the assay: Cell cycle arrest in human MDA-MB-231 cells assessed as accumulation at sub-G1 phase at 1.6 uM after 24 hrs by propidium iodide staining-based flow cytometric analysis relative to control. It counts as functional.
Assay [8] has as its system MDA-MB-231. The experiment in a line: Cell cycle arrest in human MDA-MB-231 cells assessed as accumulation at S phase at 1.6 uM after 48 hrs by propidium iodide staining-based flow cytometric analysis (reference value: 26 +/- 3%). It counts as functional.
Assay [9] has as its system MDA-MB-231. The experiment in a line: Cell cycle arrest in human MDA-MB-231 cells assessed as accumulation at G0/G1 phase at 0.4 uM after 48 hrs by propidium iodide staining-based flow cytometric analysis (reference value: 57.8 +/- 0.7%). The class given is functional.
The subject of assay [10] is MDA-MB-231. Nature of the assay: Cell cycle arrest in human MDA-MB-231 cells assessed as accumulation at G2/M phase at 0.8 uM after 48 hrs by propidium iodide staining-based flow cytometric analysis (reference value: 16 +/- 3%). The class given is functional.
Assay [11] is described as follows: Cytotoxicity against human BT549 cells assessed as growth inhibition after 48 hrs by MTT assay. The class given is functional, cell-based. The following applies: BT-549, 48 h. On the technique in general: Formazan colour is commonly taken as a measure of viable cells.
The subject of assay [12] is MDA-MB-231. Nature of the assay: Cell cycle arrest in human MDA-MB-231 cells assessed as accumulation at sub-G1 phase at 0.4 uM after 48 hrs by propidium iodide staining-based flow cytometric analysis relative to control. It counts as functional.

The term IC50 denotes the concentration needed to halve the response being measured. Consider `Oc1ccc2[nH]cc(C(c3ccc(C(c4c[nH]c5ccc(O)cc45)c4c[nH]c5ccc(O)cc45)nc3)c3c[nH]c4ccc(O)cc34)c2c1`, for which the Activity with MDA-MB-231 [1] is 22%; in the assay on MDA-MB-231 [2], “Dose-dependent effect”; with MDA-MB-231 [3] it was 24%; with MDA-MB-231 [6], 20%; in the assay on MDA-MB-231 [7], 16%; in the assay with MDA-MB-231 [8], 32%. Also, the figures for the Activity in the assay with MDA-MB-231 [9], in the assay on MDA-MB-231 [10] and in the assay with MDA-MB-231 [12] were 54%, 22% and 1.3%, respectively. In the assay with MDA-MB-231 [4], the outcome was Active. In the assay with MDA-MB-231 [5], the inhibition in vivo at 10 mg/kg is 58%. In addition, the half-inhibitory concentration (IC50) in the assay with MCF7 came out at 14 µM; in assay [11] it was 4 µM.
